Experiments:
α-amylase [1] = target: T1, α-amylase (Sus scrofa, UniProt P00690); assay: α-Amylase inhibition assay (starch/DNS); assay type: biochemical, porcine; conditions: mean ± SD, n = 4; for inhibition at 100 µM: NI = no inhibition; for IC50: compounds precipitate at 200 µM;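 on all read-outs here: reducing sugar measured by DNS colour at 540 nm, inhibition relative to enzyme reaction lacking test compound, blank without enzyme subtracted for background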
T1 construct: purchased Sigma-Aldrich; host or cells: porcine pancreas
T1 sequence (P00690 16-511): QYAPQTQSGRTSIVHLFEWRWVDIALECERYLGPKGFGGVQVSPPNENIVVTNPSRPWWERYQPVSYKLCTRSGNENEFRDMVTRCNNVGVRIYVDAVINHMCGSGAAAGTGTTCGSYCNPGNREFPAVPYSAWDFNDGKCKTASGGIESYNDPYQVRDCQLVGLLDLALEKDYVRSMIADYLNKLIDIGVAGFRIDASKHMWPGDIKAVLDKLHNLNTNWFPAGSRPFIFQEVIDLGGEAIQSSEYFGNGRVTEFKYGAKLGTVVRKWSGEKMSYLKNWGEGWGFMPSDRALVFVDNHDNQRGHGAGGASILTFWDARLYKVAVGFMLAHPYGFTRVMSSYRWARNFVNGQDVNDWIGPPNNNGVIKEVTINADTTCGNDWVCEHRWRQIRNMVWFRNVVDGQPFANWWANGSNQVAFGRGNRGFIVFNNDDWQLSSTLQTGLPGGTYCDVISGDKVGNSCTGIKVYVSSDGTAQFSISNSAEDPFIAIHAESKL
Method: α-Amylase inhibitory activity was quantified according to the method developed by Chokki et al., with some modifications [65]. […] Finally, 100 µL of 3,5-dinitrosalicylic acid (DNS) was added and heated at 100 °C for 20 min, and absorbance was then read at 540 nm in a microplate reader (Epoch, BioTek®). The reaction system without any test compound was used as the control, and the system without α-amylase served as a blank for correcting background absorbance. The percentage of α-amylase inhibition was calculated for each sample with Equation (2):(2) % inhibition=Control absorbance−sample absorbance/Control absorbance×100
(§2) All measurements were performed in quadruplicate and the values are expressed as the mean ± standard deviation.

α-glucosidase [2] = assay: α-Glucosidase inhibition assay (p-NPG substrate); assay type: biochemical, Saccharomyces cerevisiae; conditions: mean ± SD, n = 4
Method: The inhibitory activity of the compounds on α-glucosidase inhibition was quantified according to the method described by Salehi et al., with slight modifications [64]. A reaction was prepared by mixing 20 µL α-glucosidase solution (0.5 unit/mL), 120 µL 0.1 M phosphate buffer (pH 6.9), and 10 µL of the samples at concentrations from 400 µM to 4.0 µM. The solution was incubated in a 96-well microplate at 37 °C for 15 min. The enzymatic reaction was initiated by adding 20 µL of 5 mM p-NPG solution to 0.1 M phosphate buffer (pH 6.9), followed by incubation at 37 °C for 15 min. The reaction was stopped by adding 80 µL of 0.2 M sodium carbonate solution, and absorbance was read at 405 nm in a microplate reader (Epoch®, BioTek Instrument, Winooski, EUA). The reaction system without any test compounds was used as control, whereas the system without α-glucosidase served as blank for correcting background absorbance. The rate of α-glucosidase inhibition exerted by each sample was calculated with Equation (1):(1) % inhibition=Control absorbance−sample absorbance/Control absorbance×100
as §2

[3] = DPPH radical scavenging assay; conditions: mean ± SD, n = 4
Method: The scavenging of free radicals by the synthesized compounds was assessed based on the previously reported DPPH radical assay, with slight modifications. The reaction mixture consisted of 50 µL of compound in DMSO at various concentrations (from 2.5 mM to 0.2 mM) and 150 µL of DPPH solution at 133.33 µM in absolute ethanol. The reaction components were added at a ratio of 1:3 (v/v). The mixture was incubated at 37 °C for 30 min before absorbance was read at 517 nm using a microplate reader (Epoch, BioTek®). Butylhydroxytoulene (BHT) served as the positive control. Scavenging capacity (%) is expressed as the percentage decrease in DPPH. SC% = [(Acontrol − Atest)/Acontrol] × 100 where Acontrol is absorbance of the DPPH solution (control) and Atest is the absorbance of the solution of DPPH and one of the compounds.

α-glucosidase [4] = assay: Enzymatic kinetic study on α-glucosidase (Lineweaver–Burk); assay type: biochemical, Saccharomyces cerevisiae; conditions: for Type of inhibition of α-glucosidase: Lineweaver–Burk plots; for Ki: p-NPG 0.5–5.0 mM, nonlinear regression
Method: The X-axis values represent the reciprocal for the α-glucosidase substrate, p-nitrophenyl-α-D-glucopyranoside (p-NPG), while for the α-amylase substrate they represent starch, thus being 1/(starch). The Y-axis values are the reciprocal of the reaction velocity (Vo), thus being 1/Vo.
(§1) To explore the type of enzyme inhibition, kinetic studies were carried out with α-glucosidase and α-amylase using a methodology such as that described in the inhibitory activity assays. The alkoxy-substituted xanthones were evaluated at four different concentrations according to their IC50. Various concentrations of substrates were used for each of the enzymes in the range of 0.5–5.0 mM for p-NPG in α-glucosidase and 0.1–1.0% for α-amylase. The type of inhibition for each test compound was determined by utilizing double reciprocal plots. Inhibition constants (KI) were calculated from substrate versus reaction rate curves using nonlinear regression of the enzyme inhibition kinetic function.

α-amylase [5] = target: T1, α-amylase; assay: Enzymatic kinetic study on α-amylase (Lineweaver–Burk); assay type: biochemical, porcine; conditions: for Type of inhibition of α-amylase: Lineweaver–Burk plots; for Ki: starch 0.1–1.0%, nonlinear regression
Method: These KI values indicate that 6c has greater affinity for the enzyme.
as §1

α-Glucosidase [6] = conditions: Figure 1; reference not given; cited from earlier work

Row | Structure (SMILES) | inhibition at 100 µM (α-amylase [1]) | melting point | α-Glucosidase Inhibition (%) at 400 µM (α-glucosidase [2]) | IC50 (α-glucosidase [2]) | % DPPH Scavenging Activity (2.5 mM) [3] | IC50 (α-amylase [1]) | Type of inhibition of α-glucosidase (α-glucosidase [4]) | Ki (α-glucosidase [4]) | Type of inhibition of α-amylase (α-amylase [5]) | Ki (α-amylase [5]) | IC50 (α-Glucosidase [6])
1 | C=CCOc1cc2c(=O)c3ccccc3oc2cc1OC [Compound 6d, 2-(Allyloxy)-3-methoxy-9H-xanthen-9-one] | < 0% | 150 to 151 °C | 22.1 ± 1.04% | > 400 µM | 3.9 ± 0.58 ^H,I % |  |  |  |  |  | 
2 | COC(=O)COc1cc2c(=O)c3ccccc3oc2cc1OC [Compound 6a, Methyl 2-((3-methoxy-9-oxo-9H-xanthen-2-yl)oxy)acetate] | 8.7 ± 0.2% | 139 to 140 °C | 99.5 ± 0.2% | 143.6 ± 0.17 µM | 1.7 ± 0.91 ^H,I % | > 200 µM |  |  |  |  | 
3 | C=CCc1c(OCCCCBr)c(OC)cc2oc3ccccc3c(=O)c12 [Compound 9b, 1-Allyl-2-(4-bromobutoxy)-3-methoxy-9H-xanthen-9-one] | 3.87 ± 0.11% |  | 96.3 ± 0.2% | 4 ± 0.007 µM | 17.6 ± 1.17 ^D % | > 200 µM | mixed mode | 1.25 µM |  |  | 
4 | COc1cc2oc3ccccc3c(=O)c2cc1OCCCCn1ccnc1-c1ccc(Cl)cc1 [Compound 10c, 2-(4-(2-(4-Chlorophenyl)-1H-imidazol-1-yl)butoxy)-3-methoxy-9H-xanthen-9-one] | 99.5 ± 0.1% |  | 95.1 ± 0.15% | 232.7 ± 0.11 µM | 11.6 ± 1.54 ^F,G % | 5.4 ± 0.07 µM | mixed mode | 139 µM | mixed-type inhibitor | 2.2 µM | 
5 | O=c1c2c(O)cc(O)cc2oc2cc(O)c(-c3c(O)ccc4ccc(O)cc34)c(O)c12 [Dihydroxynaphtalenyl-xanthone] |  |  |  |  |  |  |  |  |  |  | 47.6 µM
6 | Cc1cc(C)n(-c2ccc(-n3c(-c4ccccc4)nc(-c4ccccc4)c3-c3ccccc3)cc2)n1 [Imidazole-pyrazole] |  |  |  |  |  |  |  |  |  |  | 105 µM
7 | COc1cc2oc3ccccc3c(=O)c2cc1OCCCCn1ccnc1 [Compound 10a, 2-(4-(1H-imidazol-1-yl)butoxy)-3-methoxy-9H-xanthen-9-one] | < 0% | 137 to 138 °C | 1.3 ± 0.01% | > 400 µM | 0.8 ± 0.01 ^I % |  |  |  |  |  | 
8 | C=CCc1c(OCC2CO2)c(OC)cc2oc3ccccc3c(=O)c12 (centres unmarked) [Compound 11b, 1-Allyl-3-methoxy-2-(oxiran-2-ylmethoxy)-9H-xanthen-9-one] | 7.8 ± 0.5% | 115 to 116 °C | 99.7 ± 0.29% | 120 ± 0.03 µM | 18.4 ± 1.43 ^D % | > 200 µM |  |  |  |  | 
9 | Clc1ccc(-c2nc(-c3ccccc3)n3c2-c2[nH]c4ccccc4c2CC3)cc1 [Carbazole-imidazole] |  |  |  |  |  |  |  |  |  |  | 81 µM
10 | COc1cc2oc3ccccc3c(=O)c2cc1OCCCCn1ccnc1-c1ccccc1 [Compound 10b, 3-Methoxy-2-(4-(2-phenyl-1H-imidazol-1-yl)butoxy)-9H-xanthen-9-one] | 9.7 ± 0.21% | 132 to 134 °C | 90.2 ± 0.21% | 212.4 ± 0.1 µM | 12.2 ± 0.08 ^F,G % | > 200 µM |  |  |  |  | 
11 | COc1cc2oc3ccccc3c(=O)c2cc1OCC(=O)c1ccc(Cl)cc1 [Compound 6c, 2-(2-(4-Chlorophenyl)-2-oxoethoxy)-3-methoxy-9H-xanthen-9-one] | 64.8 ± 0.15% | 175 to 176 °C | 92.6 ± 0.11% | 16 ± 0.03 µM | 8.7 ± 0.67 ^G % | 76.7 ± 0.03 µM | mixed mode | 21.5 µM | competitive type of inhibitor | 63.2 µM | 
12 | COc1cc2oc3ccccc3c(=O)c2cc1OCC1CO1 (centres unmarked) [Compound 11a, 3-Methoxy-2-(oxiran-2-ylmethoxy)-9H-xanthen-9-one] | < 0% | 143 to 144 °C | 0.48 ± 0.02% | > 400 µM | 19.8 ± 1.04 ^D % |  |  |  |  |  | 
13 | C=CCc1c(OCC(O)Cn2ccnc2-c2ccc(Cl)cc2)c(OC)cc2oc3ccccc3c(=O)c12 (centres unmarked) [Compound 12f, 1-Allyl-2-(3-(2-(4-chlorophenyl)-1H-imidazol-1-yl)-2-hydroxypropoxy)-3-methoxy-9H-xanthen-9-one] | 4.7 ± 0.32% | 116 to 118 °C | 99.1 ± 1.31% | 71.9 ± 0.08 µM | 18.1 ± 1.57 ^D % | > 200 µM |  |  |  |  | 
14 | C=CCc1c(OCC(O)Cn2ccnc2-c2ccccc2)c(OC)cc2oc3ccccc3c(=O)c12 (centres unmarked) [Compound 12e, 1-Allyl-2-(2-hydroxy-3-(2-phenyl-1H-imidazol-1-yl)propoxy)-3-methoxy-9H-xanthen-9-one] | 2.4 ± 0.15% | 187 to 189 °C | 96.6 ± 1.45% | 104.9 ± 0.01 µM | 17.6 ± 1.14 ^D % | > 200 µM |  |  |  |  | 
15 | C=CCc1c(OCC(O)Cn2ccnc2)c(OC)cc2oc3ccccc3c(=O)c12 (centres unmarked) [Compound 12d, 1-Allyl-2-(2-hydroxy-3-(1H-imidazol-1-yl)propoxy)-3-methoxy-9H-xanthen-9-one] | 1.5 ± 0.1% | 187 to 189 °C | 52.2 ± 0.87% | 400.2 ± 0.24 µM | 10.1 ± 0.87 ^G % | > 200 µM |  |  |  |  | 
16 | COc1cc2oc3ccccc3c(=O)c2cc1OCC(O)Cn1ccnc1-c1ccc(Cl)cc1 (centres unmarked) [Compound 12c, 2-(3-(2-(4-Chlorophenyl)-1H-imidazol-1-yl)-2-hydroxypropoxy)-3-methoxy-9H-xanthen-9-one] | 3.9 ± 0.55% | 235 °C (dec.) | 97.5 ± 1.78% | 210.9 ± 0.33 µM | 19.0 ± 0.22 ^D % | > 200 µM |  |  |  |  | 
17 | COc1c(O)cc2oc3cc(O)c(CC=C(C)C)c(O)c3c(=O)c2c1CC=C(C)C [α-Mangostin, α-mangostin] |  |  |  |  |  |  |  |  |  |  | 5 µM
18 | COc1cc2oc3ccccc3c(=O)c2cc1OCC(O)Cn1ccnc1 (centres unmarked) [Compound 12a, 2-(2-Hydroxy-3-(1H-imidazol-1-yl)propoxy)-3-methoxy-9H-xanthen-9-one] | < 0% | 146 to 148 °C | 1.87 ± 0.47% | > 400 µM | 1.1 ± 0.01 ^I % |  |  |  |  |  | 
